Measured values published in patent US20230084927A1, “GLUCOSE UPTAKE INHIBITORS AND USES THEREOF” (METABOMED LTD., priority 2019, published 2023).
Where two headings read alike, the source gives them in different places.

Experiments:
[1] = test system: ACHN SDHB −/− (SDHB CRISPRed out); assay: Cell viability in SDH-deficient/proficient isogenic pairs; format: cell-based; conditions: Homo sapiens, cancer cells, 72 hours
Method: (§1) The cells were grown in DMEM F12 supplemented with 1 mM Glutamine+3% FBS were treated with different concentrations of the indicated compounds. Cell viability was determined 72 hours later by CellTiter Glue reagent (Promega), the luminescence was measured with ClarioStar reader (BMG) and the EC50s were calculated by Prism. Murine SDHB-WT/KO, HRAS transformed isogenic pair (FIG. 12A); UOK269, Human Tumor-derived SDHB-deficient RCC in their WT counterpart with re-expression of SDHB (FIG. 12B); and ACHN, RCC cells, and their SDHB-KO (SDHB CRISPRed out) isogenic cells (FIG. 12C).

[2] = test system: ACHN WT, RCC cells; assay: as above; format: cell-based; conditions: Homo sapiens, cancer cells, 72 hours
Method: as §1

[3] = test system: 2-DeoxyGlucose phosphorylation in murine SDH-WT cells; assay: 2 DG phosphorylation assay; format: cell-based; conditions: Mus musculus, 0.25 h, 15 min, LC-MS
Method: IC50 of compound 145 and GluT1 inhibitor […] in a 2 DG phosphorylation assay was done using murine SDH-WT cells. The cells were treated for 15 min with the indicated compound at different concentrations in the presence of 2 DG. 2 DG phosphorylation was determined by LC-MS analysis and the inhibition IC50 was determined by Prism software.

[4] = test system: UOK269-WT (re-expression of SDHB); assay: Cell viability in SDH-deficient/proficient isogenic pairs; format: cell-based, Human; conditions: Homo sapiens, tumor-derived, 72 hours
Method: as §1

[5] = test system: UOK269 (SDHB-def.) RCC; assay: as above; format: cell-based, Human; conditions: Homo sapiens, tumor-derived, 72 hours
Method: as §1

[6] = test system: SDH-WT cells; assay: Cellular / differential toxicity assay (CellTiter-Glo, 3 days); format: cell-based, murine; conditions: Mus musculus, 72 h
How it was run: (§2)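 Isogenic SDHB-deficient (HRAS-transformed SDH-KO) and SDH-WT cells grown in DMEM-F12 with 1 mM glutamine and 3% FBS, plated with compound (10-point dilution from 10 uM to 0.0065 uM or lower) for 3 days at 37 °C, 5% CO2. Viability by CellTiter-Glo luminescence; EC50 calculated.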

[7] = test system: SDH-KO-HRAS cells (SDHB-deficient); assay: as above; format: cell-based, murine; conditions: for EC50: Mus musculus, 72 h; for differential toxicity, SDH-KO cells compared to SDH-WT cells: viability EC50s, Example 6
How it was run: as §2

[8] = toxicity, SDH-WT cells, 3 days, CellTiter-Glo, read-out: EC50 (uM) SDH-WT
[9] = toxicity, SDH-KO cells, 3 days, CellTiter-Glo, read-out: EC50 (uM) SDH-KO-HTAS-C17

SMILES	EC50 [6, 8] [µM]	EC50 [7, 9] [µM]	further results
Cc1c(NC(=O)c2cc(C(N)=O)nc3cc(F)ccc23)c(C(F)(F)F)nn1Cc1ccc(C#N)cc1 [BAY-876, reference compound]			EC50 [1]: 256 nM; EC50 [2]: 24200 nM; IC50 [3]: 21.6 nM; EC50 [4]: 5300 nM; EC50 [5]: 15 nM; EC50 ([6]; Murine SDH-WT, transformed, 72 hours, Example 8, read-out: EC50): 0.134 µM; EC50 ([7]; Murine SDH-KO, transformed, 72 hours, Example 8, read-out: EC50): 0.00095 µM
c1ccc(-c2nc(NCCc3ccc4[nH]cnc4c3)c3sc4ncccc4c3n2)cc1 [Compound 307, N-(2-(1H-Benzo[d]imidazol-5-yl)ethyl)-2-phenylpyrido[3′,2′:4,5]thieno[3,2-d]pyrimidin-4-amine]	3 to 10	> 10	
Cc1nc(NCCc2ccc3[nH]cnc3c2)c2sc3ncccc3c2n1 [Compound 309, N-(2-(1H-Benzo[d]imidazol-5-yl)ethyl)-2-methylpyrido[3′,2′:4,5]thieno[3,2-d]pyrimidin-4-amine]	> 10	3 to 10	
c1cnc2sc3c(NCCc4ccc5[nH]cnc5c4)nc(C4CCCCC4)nc3c2c1 [Compound 310, N-(2-(1H-Benzo[d]imidazol-5-yl)ethyl)-2-cyclohexylpyrido[3′,2′:4,5]thieno[3,2-d]pyrimidin-4-amine]	> 10	> 10	
CC(C)c1nc(NCCc2ccc3[nH]cnc3c2)c2sc3nc4c(cc3c2n1)COC(C)(C)C4 [Compound 311]	> 10	1 to 3	
CC(C)c1nc(NCCc2ccc3[nH]cnc3c2)c2sc3ncccc3c2n1 [Compound 312, N-(2-(1H-Benzo[d]imidazol-5-yl)ethyl)-2-isopropylpyrido[3′,2′:4,5]thieno[3,2-d]pyrimidin-4-amine]	3 to 10	3 to 10	
Cc1nc(NCCc2ccc3[nH]cnc3c2)c2sc3nc4c(cc3c2n1)COC(C)(C)C4 [Compound 313]	3 to 10	3 to 10	
CCCc1nc(NCCc2ccc3[nH]cnc3c2)c2sc3nc4c(cc3c2n1)COC(C)(C)C4 [Compound 314]	3 to 10	3 to 10	
CC1(C)Cc2nc3sc4c(NCCc5ccc6[nH]cnc6c5)nc(-c5ccccc5)nc4c3cc2CO1 [Compound 315]	3 to 10	1 to 3	
c1cnc2sc3c(NCCc4ccc5[nH]cnc5c4)nc(C4CCCC4)nc3c2c1 [Compound 316, N-(2-(1H-Benzo[d]imidazol-5-yl)ethyl)-2-cyclopentylpyrido[3′,2′:4,5]thieno[3,2-d]pyrimidin-4-amine]	3 to 10	3 to 10	
COCCOCCOCCOCCNC(=O)c1c2c(nc3sc4c(NCCc5ccc6[nH]cnc6c5)ncnc4c13)CC(C)(C)OC2 [Compound 317, 4-((2-(1H-Benzo[d]imidazol-5-yl)ethyl)amino)-8,8-dimethyl-N-(2,5,8,11-tetraoxatridecan-13-yl)-7,10-dihydro-8H-pyrano[3″,4″:5′,6′]pyrido[3′,2′:4,5]thieno[3,2-d]pyrimidine-11-carboxamide]	3 to 10	3 to 10	
CC1(C)Cc2nc3sc4c(NCCc5ccc6[nH]cnc6c5)ncnc4c3c(-c3cncs3)c2CO1 [Compound 318]	< 1	< 1	
CSCc1c2c(nc3sc4c(NCCc5ccc6[nH]cnc6c5)ncnc4c13)CC(C)(C)OC2 [Compound 319, N-(2-(1H-Benzo[d]imidazol-5-yl)ethyl)-8,8-dimethyl-11-((methylthio)methyl)-7,10-dihydro-8H-pyrano[3″,4″:5′,6′]pyrido[3′,2′:4,5]thieno[3,2-d]pyrimidin-4-amine]	1 to 3	< 1	
COCCOCCOCCNCc1c2c(nc3sc4c(NCCc5ccc6[nH]cnc6c5)ncnc4c13)CC(C)(C)OC2 [Compound 320, N-(2-(1H-Benzo[d]imidazol-5-yl)ethyl)-11-(5,8,11-trioxa-2-azadodecyl)-8,8-dimethyl-7,10-dihydro-8H-pyrano[3″,4″:5′,6′]pyrido[3′,2′:4,5]thieno[3,2-d]pyrimidin-4-amine]	3 to 10	3 to 10	
COCCOCCOCCOCCNCc1c2c(nc3sc4c(NCCc5ccc6[nH]cnc6c5)ncnc4c13)CC(C)(C)OC2 [Compound 321, N-(2-(1H-Benzo[d]imidazol-5-yl)ethyl)-8,8-dimethyl-11-(5,8,11,14-tetraoxa-2-azapentadecyl)-7,10-dihydro-8H-pyrano[3″,4″:5′,6′]pyrido[3′,2′:4,5]thieno[3,2-d]pyrimidin-4-amine]	3 to 10	1 to 3	
CC1(C)Cc2nc3sc4c(NCCc5ccc6[nH]cnc6c5)ncnc4c3c(COc3ccccc3)c2CO1 [Compound 322, N-(2-(1H-Benzo[d]imidazol-5-yl)ethyl)-8,8-dimethyl-11-(phenoxymethyl)-7,10-dihydro-8H-pyrano[3″,4″:5′,6′]pyrido[3′,2′:4,5]thieno[3,2-d]pyrimidin-4-amine]	< 1	< 1	
CC(C)COCc1c2c(nc3sc4c(NCCc5ccc6[nH]cnc6c5)ncnc4c13)CC(C)(C)OC2 [Compound 323, N-(2-(1H-Benzo[d]imidazol-5-yl)ethyl)-11-(isobutoxymethyl)-8,8-dimethyl-7,10-dihydro-8H-pyrano[3″,4″:5′,6′]pyrido[3′,2′:4,5]thieno[3,2-d]pyrimidin-4-amine]	< 1	< 1	
CC1(C)Cc2nc3sc4c(NCCc5ccc6[nH]cnc6c5)ncnc4c3c(COC3CCOCC3)c2CO1 [Compound 324, N-(2-(1H-Benzo[d]imidazol-5-yl)ethyl)-8,8-dimethyl-11-(((tetrahydro-2H-pyran-4-yl)oxy)methyl)-7,10-dihydro-8H-pyrano[3″,4″:5′,6′]pyrido[3′,2′:4,5]thieno[3,2-d]pyrimidin-4-amine]	< 1	< 1	
CC1(C)Cc2nc3sc4c(NCCc5ccc6[nH]cnc6c5)ncnc4c3c(COC3CCCCC3)c2CO1 [Compound 327, N-(2-(1H-Benzo[d]imidazol-5-yl)ethyl)-11-((cyclohexyloxy)methyl)-8,8-dimethyl-7,10-dihydro-8H-pyrano[3″,4″:5′,6′]pyrido[3′,2′:4,5]thieno[3,2-d]pyrimidin-4-amine]	< 1	< 1	
CN1CCC(OCc2c3c(nc4sc5c(NCCc6ccc7[nH]cnc7c6)ncnc5c24)CC(C)(C)OC3)CC1 [Compound 328, N-(2-(1H-Benzo[d]imidazol-5-yl)ethyl)-8,8-dimethyl-11-(((1-methylpiperidin-4-yl)oxy)methyl)-7,10-dihydro-8H-pyrano[3″,4″:5′,6′]pyrido[3′,2′:4,5]thieno[3,2-d]pyrimidin-4-amine]	3 to 10	3 to 10	
CC1(C)Cc2nc3oc4c(NCCc5ccc6[nH]cnc6c5)ncnc4c3cc2CO1 [Compound 329]	< 1	< 1	
COCCOCCOCCOCCN(C)Cc1c2c(nc3sc4c(NCCc5ccc6[nH]cnc6c5)ncnc4c13)CC(C)(C)OC2 [Compound 330, N-(2-(1H-Benzo[d]imidazol-5-yl)ethyl)-8,8-dimethyl-11-(2-methyl-5,8,11,14-tetraoxa-2-azapentadecyl)-7,10-dihydro-8H-pyrano[3″,4″:5′,6′]pyrido[3′,2′:4,5]thieno[3,2-d]pyrimidin-4-amine]	3 to 10	< 1	differential toxicity, SDH-KO cells compared to SDH-WT cells ([7]; 72 hours): > 56
COCCOCCOCCN(C)Cc1c2c(nc3sc4c(NCCc5ccc6[nH]cnc6c5)ncnc4c13)CC(C)(C)OC2 [Compound 331, N-(2-(1H-Benzo[d]imidazol-5-yl)ethyl)-8,8-dimethyl-11-(2-methyl-5,8,11-trioxa-2-azadodecyl)-7,10-dihydro-8H-pyrano[3″,4″:5′,6′]pyrido[3′,2′:4,5]thieno[3,2-d]pyrimidin-4-amine]	3 to 10	< 1	differential toxicity, SDH-KO cells compared to SDH-WT cells ([7]; 72 hours): > 42
CC1(C)Cc2nc3sc4c(NCCc5ccc6[nH]cnc6c5)ncnc4c3c(COC3CCCC3)c2CO1 [Compound 333]	1 to 3	< 1	
CN(C)Cc1c2c(nc3sc4c(NCCc5ccc6[nH]cnc6c5)ncnc4c13)CC(C)(C)OC2 [Compound 334]	3 to 10	< 1	
COCCCCc1c2c(nc3sc4c(NCCc5ccc6[nH]cnc6c5)ncnc4c13)CC(C)(C)OC2 [Compound 335]	3 to 10	< 1	
